According to the NIST ThermoML archive (doi:10.1021/je060339m):
Numbers after ± are expanded uncertainties.

Conditions: Liquid

CCCCOC(C)=O [butyl ethanoate]
mass density (298.15 K, 100 kPa): 875.7 ± 3.2 kg/m3 | mass density (298.15 K, 1000 kPa): 876.3 ± 3.3 kg/m3 | mass density (298.15 K, 2000 kPa): 877.2 ± 3.4 kg/m3 | mass density (298.15 K, 3000 kPa): 878 ± 3.5 kg/m3 | mass density (298.15 K, 3100 kPa): 878.1 ± 3.5 kg/m3 | mass density (298.15 K, 5000 kPa): 879.9 ± 3.7 kg/m3 | mass density (298.15 K, 10000 kPa): 883.8 ± 4.3 kg/m3 | mass density (298.15 K, 15000 kPa): 887.6 ± 4.9 kg/m3 | mass density (298.15 K, 20000 kPa): 891.3 ± 5.5 kg/m3 | mass density (298.15 K, 25000 kPa): 894.9 ± 6.1 kg/m3 | mass density (298.15 K, 30000 kPa): 899.1 ± 6.7 kg/m3 | mass density (298.15 K, 35000 kPa): 903.7 ± 7.3 kg/m3 | mass density (303.15 K, 100 kPa): 870.4 ± 3.1 kg/m3 | mass density (303.15 K, 1000 kPa): 871.1 ± 3.3 kg/m3 | mass density (303.15 K, 2000 kPa): 872 ± 3.4 kg/m3 | mass density (303.15 K, 3000 kPa): 872.9 ± 3.5 kg/m3 | mass density (303.15 K, 3100 kPa): 873 ± 3.5 kg/m3 | mass density (303.15 K, 5000 kPa): 874.7 ± 3.7 kg/m3 | mass density (303.15 K, 10000 kPa): 878.8 ± 4.3 kg/m3 | mass density (303.15 K, 15000 kPa): 882.8 ± 4.9 kg/m3 | mass density (303.15 K, 20000 kPa): 886.5 ± 5.5 kg/m3 | mass density (303.15 K, 25000 kPa): 890.2 ± 6.1 kg/m3 | mass density (303.15 K, 30000 kPa): 894.4 ± 6.7 kg/m3 | mass density (303.15 K, 35000 kPa): 899.1 ± 7.3 kg/m3 | mass density (308.15 K, 100 kPa): 865.1 ± 3.1 kg/m3 | mass density (308.15 K, 1000 kPa): 865.9 ± 3.3 kg/m3 | mass density (308.15 K, 2000 kPa): 866.9 ± 3.4 kg/m3 | mass density (308.15 K, 3000 kPa): 867.8 ± 3.5 kg/m3 | mass density (308.15 K, 3100 kPa): 867.8 ± 3.5 kg/m3 | mass density (308.15 K, 5000 kPa): 869.6 ± 3.7 kg/m3 | mass density (308.15 K, 10000 kPa): 873.9 ± 4.3 kg/m3 | mass density (308.15 K, 15000 kPa): 878 ± 4.9 kg/m3 | mass density (308.15 K, 20000 kPa): 881.9 ± 5.5 kg/m3 | mass density (308.15 K, 25000 kPa): 885.6 ± 6.1 kg/m3 | mass density (308.15 K, 30000 kPa): 890 ± 6.7 kg/m3 | mass density (308.15 K, 35000 kPa): 894.8 ± 7.3 kg/m3 | mass density (313.15 K, 100 kPa): 859.9 ± 3.1 kg/m3 | mass density (313.15 K, 1000 kPa): 860.8 ± 3.3 kg/m3 | mass density (313.15 K, 2000 kPa): 861.7 ± 3.4 kg/m3 | mass density (313.15 K, 3000 kPa): 862.7 ± 3.5 kg/m3 | mass density (313.15 K, 3100 kPa): 862.7 ± 3.5 kg/m3 | mass density (313.15 K, 5000 kPa): 864.6 ± 3.7 kg/m3 | mass density (313.15 K, 10000 kPa): 869 ± 4.3 kg/m3 | mass density (313.15 K, 15000 kPa): 873.2 ± 4.9 kg/m3 | mass density (313.15 K, 20000 kPa): 877.2 ± 5.5 kg/m3 | mass density (313.15 K, 25000 kPa): 881 ± 6.1 kg/m3 | mass density (313.15 K, 30000 kPa): 885.6 ± 6.7 kg/m3 | mass density (313.15 K, 35000 kPa): 890.5 ± 7.3 kg/m3 | mass density (318.15 K, 100 kPa): 854.9 ± 3.1 kg/m3 | mass density (318.15 K, 1000 kPa): 855.7 ± 3.3 kg/m3 | mass density (318.15 K, 2000 kPa): 856.7 ± 3.4 kg/m3 | mass density (318.15 K, 3000 kPa): 857.8 ± 3.5 kg/m3 | mass density (318.15 K, 3100 kPa): 857.9 ± 3.5 kg/m3 | mass density (318.15 K, 5000 kPa): 859.6 ± 3.7 kg/m3 | mass density (318.15 K, 10000 kPa): 864.2 ± 4.3 kg/m3 | mass density (318.15 K, 15000 kPa): 868.5 ± 4.9 kg/m3 | mass density (318.15 K, 20000 kPa): 872.6 ± 5.5 kg/m3 | mass density (318.15 K, 25000 kPa): 876.5 ± 6.1 kg/m3 | mass density (318.15 K, 30000 kPa): 881.3 ± 6.7 kg/m3 | mass density (318.15 K, 35000 kPa): 886.3 ± 7.3 kg/m3 | mass density (323.15 K, 100 kPa): 849.7 ± 3.1 kg/m3 | mass density (323.15 K, 1000 kPa): 851 ± 3.3 kg/m3 | mass density (323.15 K, 2000 kPa): 852 ± 3.4 kg/m3 | mass density (323.15 K, 3000 kPa): 853 ± 3.5 kg/m3 | mass density (323.15 K, 3100 kPa): 853.1 ± 3.5 kg/m3 | mass density (323.15 K, 5000 kPa): 854.6 ± 3.7 kg/m3 | mass density (323.15 K, 10000 kPa): 859.4 ± 4.3 kg/m3 | mass density (323.15 K, 15000 kPa): 863.9 ± 4.9 kg/m3 | mass density (323.15 K, 20000 kPa): 868.1 ± 5.5 kg/m3 | mass density (323.15 K, 25000 kPa): 872.3 ± 6.1 kg/m3 | mass density (323.15 K, 30000 kPa): 877.3 ± 6.7 kg/m3 | mass density (323.15 K, 35000 kPa): 882.4 ± 7.3 kg/m3 | mass density (328.15 K, 100 kPa): 844.6 ± 3.1 kg/m3 | mass density (328.15 K, 1000 kPa): 845.7 ± 3.3 kg/m3 | mass density (328.15 K, 2000 kPa): 846.8 ± 3.4 kg/m3 | mass density (328.15 K, 3000 kPa): 847.9 ± 3.5 kg/m3 | mass density (328.15 K, 3100 kPa): 848 ± 3.5 kg/m3 | mass density (328.15 K, 5000 kPa): 849.7 ± 3.7 kg/m3 | mass density (328.15 K, 10000 kPa): 854.6 ± 4.3 kg/m3 | mass density (328.15 K, 15000 kPa): 859.3 ± 4.9 kg/m3 | mass density (328.15 K, 20000 kPa): 863.6 ± 5.5 kg/m3 | mass density (328.15 K, 25000 kPa): 867.8 ± 6.1 kg/m3 | mass density (328.15 K, 30000 kPa): 872.5 ± 6.7 kg/m3 | mass density (328.15 K, 35000 kPa): 877.7 ± 7.3 kg/m3 | mass density (333.15 K, 100 kPa): 839.6 ± 3.2 kg/m3 | mass density (333.15 K, 1000 kPa): 840.7 ± 3.3 kg/m3 | mass density (333.15 K, 2000 kPa): 841.8 ± 3.4 kg/m3 | mass density (333.15 K, 3000 kPa): 842.9 ± 3.5 kg/m3 | mass density (333.15 K, 3100 kPa): 842.9 ± 3.5 kg/m3 | mass density (333.15 K, 5000 kPa): 844.9 ± 3.7 kg/m3 | mass density (333.15 K, 10000 kPa): 850 ± 4.3 kg/m3 | mass density (333.15 K, 15000 kPa): 854.8 ± 4.9 kg/m3 | mass density (333.15 K, 20000 kPa): 859.3 ± 5.5 kg/m3 | mass density (333.15 K, 25000 kPa): 863.6 ± 6.1 kg/m3 | mass density (333.15 K, 30000 kPa): 868.6 ± 6.7 kg/m3 | mass density (333.15 K, 35000 kPa): 873.9 ± 7.3 kg/m3 | mass density (338.15 K, 100 kPa): 834.5 ± 3.2 kg/m3 | mass density (338.15 K, 1000 kPa): 835.6 ± 3.3 kg/m3 | mass density (338.15 K, 2000 kPa): 836.7 ± 3.4 kg/m3 | mass density (338.15 K, 3000 kPa): 837.9 ± 3.5 kg/m3 | mass density (338.15 K, 3100 kPa): 838 ± 3.5 kg/m3 | mass density (338.15 K, 5000 kPa): 840.1 ± 3.7 kg/m3 | mass density (338.15 K, 10000 kPa): 845.5 ± 4.3 kg/m3 | mass density (338.15 K, 15000 kPa): 850.1 ± 4.9 kg/m3 | mass density (338.15 K, 20000 kPa): 855 ± 5.5 kg/m3 | mass density (338.15 K, 25000 kPa): 859.5 ± 6.1 kg/m3 | mass density (338.15 K, 30000 kPa): 864.6 ± 6.7 kg/m3
